Earlier results on two compounds are cited in patent publication US20050118594A1, “Enzymes” (priority 2001, published 2005).

Setting [1] is: mild hypertriglyceridemia (e.g., triglycerides <400 mg/dl).

For the compound `CC(C)(Oc1ccc(C2CC2(Cl)Cl)cc1)C(=O)O` (centres unmarked) [ciprofibrate], the “lowering of VLDL levels” value (second generation agents, compared with gemfibrozil) is “to a degree similar to that produced by gemfibrozil”.
Turning to `Cc1ccc(C)c(OCCCC(C)(C)C(=O)O)c1` [gemfibrozil], under setting [1], the “decrease in triglyceride levels” value was at least 50% and the “increase in HDL cholesterol concentrations” value was 15-25%. Besides, the “change in LDL cholesterol levels” value (mild hypertriglyceridemia, particularly in subjects with familial combined hyperlipidemia) was “either no change or an increase”. The “decrease in LDL levels” value (patients with heterozygous familial hypercholesterolemia) is recorded as 10%.
